Reference: patent US3968207A, “Method of controlling fleas and ticks on cats and dogs” (priority 1975, dated 1976)

Columns and labels:
Format in all cases: in vivo
Ctenocephalides felis [1] = test: Topical (spray or 2% dust) flea control on dogs, Table I
Procedure: Dogs used in testing were placed in raised cages with steel grate floors. Three days prior to treatment, 100 fleas were placed on each dog. On the day of treatment each cage was lined with absorbent brown paper. Dogs were treated at various dose levels (1-60 mg./kg.) applied topically using a 2% active ingredient dust formulation, or a dilute aqueous dispersion applied as a spray. Activity was determined by the number of dead fleas recovered from the brown paper, and a systematic examination of the test animal in relation to infested, untreated control dogs.
Residual activity of the initial application of the test compound was done by experimentally reinfesting each dog at 7-day intervals with an additional 100 adult C. felis. Activity was determined as described above.

Dermacentor variabilis = test: Tick control on dogs fed medicated diet, Table V; conditions: for % Control of Adult Engorged Female Ticks D.V.: dogs
Procedure: (§1) Five groups of two mongrel dogs each were fed a daily dose of 0, 6.25, 25, 100 or 400 mg. O,O,O',O'-tetramethyl O,O'-thiodi-p-phenylene phosphorothioate/kg. body weight in Agway Big Red Dog Meal. Dogs eating less than 75% of the food were given a corrected dose by gelatin capsule to equal 100%. Medication began 1 day after infesting each dog with 100 adult Ctenocephalides felis and 2 days before infesting each dog with 10 Dermacentor variabiles and 10 Rhipicephalus sanguineus adults.

Rhipicephalus sanguineus = test: Tick control on dogs fed medicated diet, Table V; conditions: for % Control of Adult Engorged Female Ticks R.S.: dogs
Procedure: as §1

Ctenocephalides felis [2] = test: 2% powder against experimental flea infestations on cats; conditions: 60 mg/kg as 2% powder
Procedure: An experiment was conducted using O,O,O',O'-tetramethyl O,O'-thiodi-p-phenylene phosphorothioate which was prepared from a 25% concentrate diluted with talc so the final powder was 2% drug. Prior to the start of the test 23 cats were classified according to sex, age, hair length and color and divided into five groups. One of these groups was then randomly selected to be the controls and the other groups were assigned for treatment in a random order. The amount of 2% drug dust applied to each cat was calculated prior to treatment to give a dose rate of 60 mg. drug/kg. The duster was weighed before treating each cat and at intervals during dusting to get as near the desired dose as possible. […] Table VII summarizes the results obtained up to 48 days after treatment.

fleas and ticks = test: Control of fleas and ticks (general statement); conditions: topically and systemically
[3] = 400 mg/kg in feed, end of experiment (8 days)

## COP(=S)(OC)Oc1ccc(Sc2ccc(OP(=S)(OC)OC)cc2)cc1 [O,O,O',O'-tetramethyl O,O'-thiodi-p-phenylene phosphorothioate]
Ctenocephalides felis [1]; 2% dust 10.0 mg/kg, day 0
  Percent Activity: 100%
Ctenocephalides felis [1]; 2% dust 10.0 mg/kg, day 7
  Percent Activity: 100%
Ctenocephalides felis [1]; 2% dust 10.0 mg/kg, day 14
  Percent Activity: 100%
Ctenocephalides felis [1]; 2% dust 10.0 mg/kg, day 21
  Percent Activity: 100%
Ctenocephalides felis [1]; 2% dust 10.0 mg/kg, day 28
  Percent Activity: 80%
Ctenocephalides felis [1]; 2% dust 10.0 mg/kg, day 42
  Percent Activity: 0%
Ctenocephalides felis [1]; 2% dust 20.0 mg/kg, day 0
  Percent Activity: 100%
Ctenocephalides felis [1]; 2% dust 20.0 mg/kg, day 7
  Percent Activity: 100%
Ctenocephalides felis [1]; 2% dust 20.0 mg/kg, day 14
  Percent Activity: 100%
Ctenocephalides felis [1]; 2% dust 20.0 mg/kg, day 21
  Percent Activity: 100%
Ctenocephalides felis [1]; 2% dust 20.0 mg/kg, day 28
  Percent Activity: 100%
Ctenocephalides felis [1]; 2% dust 20.0 mg/kg, day 42
  Percent Activity: 0%
Ctenocephalides felis [1]; 2% dust 40.0 mg/kg, day 0
  Percent Activity: 100%
Ctenocephalides felis [1]; 2% dust 40.0 mg/kg, day 7
  Percent Activity: 100%
Ctenocephalides felis [1]; 2% dust 40.0 mg/kg, day 14
  Percent Activity: 100%
Ctenocephalides felis [1]; 2% dust 40.0 mg/kg, day 21
  Percent Activity: 100%
Ctenocephalides felis [1]; 2% dust 40.0 mg/kg, day 28
  Percent Activity: 100%
Ctenocephalides felis [1]; 2% dust 40.0 mg/kg, day 42
  Percent Activity: 0%
Ctenocephalides felis [1]; spray 1.25 mg/kg, day 0
  Percent Activity: 100%
Ctenocephalides felis [1]; spray 1.25 mg/kg, day 7
  Percent Activity: 100%
Ctenocephalides felis [1]; spray 1.25 mg/kg, day 14
  Percent Activity: 100%
Ctenocephalides felis [1]; spray 1.25 mg/kg, day 21
  Percent Activity: 100%
Ctenocephalides felis [1]; spray 1.25 mg/kg, day 25
  Percent Activity: 0%
Ctenocephalides felis [1]; spray 2.5 mg/kg, day 0
  Percent Activity: 100%
Ctenocephalides felis [1]; spray 2.5 mg/kg, day 7
  Percent Activity: 100%
Ctenocephalides felis [1]; spray 2.5 mg/kg, day 14
  Percent Activity: 100%
Ctenocephalides felis [1]; spray 2.5 mg/kg, day 21
  Percent Activity: 0%
Ctenocephalides felis [1]; spray 10.0 mg/kg, day 0
  Percent Activity: 100%
Ctenocephalides felis [1]; spray 10.0 mg/kg, day 7
  Percent Activity: 100%
Ctenocephalides felis [1]; spray 10.0 mg/kg, day 14
  Percent Activity: 100%
Ctenocephalides felis [1]; spray 10.0 mg/kg, day 21
  Percent Activity: 100%
Ctenocephalides felis [1]; spray 10.0 mg/kg, day 28
  Percent Activity: 10%
Dermacentor variabilis; 6.25 mg/kg in feed
  effect against adult ticks: ineffective
  % Control of Adult Engorged Female Ticks D.V.: 0%
Dermacentor variabilis; 25 mg/kg in feed
  effect against adult ticks: ineffective
  % Control of Adult Engorged Female Ticks D.V.: 10%
Dermacentor variabilis; 100 mg/kg in feed, some ticks on one dog
  condition of ticks: discolored and stunted
Dermacentor variabilis; [3]
  condition of adult ticks in capsules: either dead or moribund
Dermacentor variabilis; 100 mg/kg in feed
  % Control of Adult Engorged Female Ticks D.V.: 30%
Dermacentor variabilis; 400 mg/kg in feed
  % Control of Adult Engorged Female Ticks D.V.: 100%
Rhipicephalus sanguineus; 6.25 mg/kg in feed
  effect against adult ticks: ineffective
  % Control of Adult Engorged Female Ticks R.S.: 20%
Rhipicephalus sanguineus; 25 mg/kg in feed
  effect against adult ticks: ineffective
  % Control of Adult Engorged Female Ticks R.S.: 0%
Rhipicephalus sanguineus; 100 mg/kg in feed
  condition of ticks: engorged and detached normally
  % Control of Adult Engorged Female Ticks R.S.: 50%
Rhipicephalus sanguineus; 400 mg/kg in feed, end of experiment
  condition of two female ticks on the ear of one dog: appeared normal, though not completely engorged
Rhipicephalus sanguineus; [3]
  condition of adult ticks in capsules: either dead or moribund
Rhipicephalus sanguineus; 400 mg/kg in feed
  % Control of Adult Engorged Female Ticks R.S.: 100%
Ctenocephalides felis [2]; fifth week
  control: 64%
Ctenocephalides felis [2]; for four weeks
  residual control against C. felis on cats: excellent residual control
Ctenocephalides felis [2]; for three weeks
  control: 100%
Ctenocephalides felis [2]; fourth week
  control: 90%
Ctenocephalides felis [2]; sixth week
  control: 40%
Fleas and ticks
  controlling fleas and ticks: highly effective
